Measured values published in PubChem BioAssay (NCI).
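Five compound concentrations were applied to cells in 96-well plates for 48 hours; endpoints were derived by simple linear interpolation of the resulting dose-response curve. TGI: total growth inhibition.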

Legend:
Test in all cases: growth of human tumour cells (NCI), 48 h
CCRF-CEM leukemia = tested on: CCRF-CEM leukemia
SR leukemia = tested on: SR leukemia
XF 498 CNS = tested on: XF 498 CNS
NCI-H23 lung = tested on: NCI-H23 lung
DLD-1 colon = tested on: DLD-1 colon
M19-MEL melanoma = tested on: M19-MEL melanoma
A549 NSCLC = tested on: A549 NSCLC
RXF-631 renal = tested on: RXF-631 renal
MOLT-4 leukemia = tested on: MOLT-4 leukemia
SF-539 CNS = tested on: SF-539 CNS
LXFL 529 NSCLC = tested on: LXFL 529 NSCLC
HCT-15 colon = tested on: HCT-15 colon
U251 CNS = tested on: U251 CNS
OVCAR-3 ovarian = tested on: OVCAR-3 ovarian
HL-60(TB) leukemia = tested on: HL-60(TB) leukemia
LOX IMVI melanoma = tested on: LOX IMVI melanoma
NCI-H460 lung = tested on: NCI-H460 lung
HCT-116 colon = tested on: HCT-116 colon
SK-MEL-5 melanoma = tested on: SK-MEL-5 melanoma
RXF 393 renal = tested on: RXF 393 renal
SK-OV-3 ovarian = tested on: SK-OV-3 ovarian
SK-MEL-28 melanoma = tested on: SK-MEL-28 melanoma
KM12 colon = tested on: KM12 colon
UO-31 renal = tested on: UO-31 renal
MALME-3M melanoma = tested on: MALME-3M melanoma
COLO 205 colon = tested on: COLO 205 colon
SW-620 colon = tested on: SW-620 colon
NCI-H522 lung = tested on: NCI-H522 lung
KM20L2 colon = tested on: KM20L2 colon
UACC-257 melanoma = tested on: UACC-257 melanoma
SF-268 CNS = tested on: SF-268 CNS
SNB-75 CNS = tested on: SNB-75 CNS
HCC-2998 colon = tested on: HCC-2998 colon
TK-10 renal = tested on: TK-10 renal
EKVX NSCLC = tested on: EKVX NSCLC
SNB-78 CNS = tested on: SNB-78 CNS
K-562 leukemia = tested on: K-562 leukemia
M14 melanoma = tested on: M14 melanoma
DMS 114 small cell lung = tested on: DMS 114 small cell lung
A498 renal = tested on: A498 renal
UACC-62 melanoma = tested on: UACC-62 melanoma
IGROV1 ovarian = tested on: IGROV1 ovarian
OVCAR-5 ovarian = tested on: OVCAR-5 ovarian
ACHN renal = tested on: ACHN renal
SK-MEL-2 melanoma = tested on: SK-MEL-2 melanoma
OVCAR-8 ovarian = tested on: OVCAR-8 ovarian
HOP-18 NSCLC = tested on: HOP-18 NSCLC
DMS 273 small cell lung = tested on: DMS 273 small cell lung
HOP-92 NSCLC = tested on: HOP-92 NSCLC
SN12C renal = tested on: SN12C renal
HT29 colon = tested on: HT29 colon
SNB-19 CNS = tested on: SNB-19 CNS
SF-295 CNS = tested on: SF-295 CNS
786-0 renal = tested on: 786-0 renal
HOP-62 NSCLC = tested on: HOP-62 NSCLC
CAKI-1 renal = tested on: CAKI-1 renal
NCI-H226 lung = tested on: NCI-H226 lung

Measured: TGI

CCOC(=O)C(C)OC(=O)c1ccc(C)cc1 (stereo not drawn)
> 100 µM: CCRF-CEM leukemia | SR leukemia | XF 498 CNS | NCI-H23 lung | DLD-1 colon | M19-MEL melanoma | A549 NSCLC | RXF-631 renal | MOLT-4 leukemia | SF-539 CNS | LXFL 529 NSCLC | HCT-15 colon | U251 CNS | OVCAR-3 ovarian | HL-60(TB) leukemia | LOX IMVI melanoma | NCI-H460 lung | HCT-116 colon | SK-MEL-5 melanoma | RXF 393 renal | SK-OV-3 ovarian | SK-MEL-28 melanoma | KM12 colon | UO-31 renal | MALME-3M melanoma | COLO 205 colon | SW-620 colon | NCI-H522 lung | KM20L2 colon | UACC-257 melanoma | SF-268 CNS | SNB-75 CNS | HCC-2998 colon | TK-10 renal | EKVX NSCLC | SNB-78 CNS | K-562 leukemia | M14 melanoma | DMS 114 small cell lung | A498 renal | UACC-62 melanoma | IGROV1 ovarian | OVCAR-5 ovarian | ACHN renal | SK-MEL-2 melanoma | OVCAR-8 ovarian | HOP-18 NSCLC | DMS 273 small cell lung | HOP-92 NSCLC | SN12C renal | HT29 colon | SNB-19 CNS

CNC(=S)NNC(=O)c1c(C)nc2sccn12
> 100 µM: CCRF-CEM leukemia | SR leukemia | XF 498 CNS | NCI-H23 lung | DLD-1 colon | M19-MEL melanoma | A549 NSCLC | RXF-631 renal | MOLT-4 leukemia | SF-539 CNS | LXFL 529 NSCLC | HCT-15 colon | U251 CNS | OVCAR-3 ovarian | HL-60(TB) leukemia | LOX IMVI melanoma | NCI-H460 lung | HCT-116 colon | SK-MEL-5 melanoma | RXF 393 renal | SK-OV-3 ovarian | SK-MEL-28 melanoma | KM12 colon | MALME-3M melanoma | COLO 205 colon | SW-620 colon | NCI-H522 lung | KM20L2 colon | UACC-257 melanoma | SF-268 CNS | SF-295 CNS | 786-0 renal | HCC-2998 colon | TK-10 renal | EKVX NSCLC | K-562 leukemia | UACC-62 melanoma | HOP-62 NSCLC | IGROV1 ovarian | OVCAR-5 ovarian | ACHN renal | SK-MEL-2 melanoma | OVCAR-8 ovarian | CAKI-1 renal | HOP-18 NSCLC | DMS 273 small cell lung | HOP-92 NSCLC | NCI-H226 lung | SN12C renal | HT29 colon | SNB-19 CNS
